Data reported in PMC9804387, “Substrate Peptidomimetic Inhibitors of P. falciparum Plasmepsin X with Potent Antimalarial Activity” (Chemmedchem, 2022).
Structures can show the parent of a compound that is named as a salt.

Columns and labels:
in vitro = format: cell-based; conditions: human
Method: HepG2 Cytotoxicity Assay. HepG2 cytotoxicity assays were performed as previously described.[41] Briefly, human hepatocyte HepG2 cells were cultured in DMEM supplemented with 10 % FCS at 37 °C and 5 % CO2 in a humidified incubator. Cells were seeded at 1000 cells/well in 50 μL in 384‐well plates (Grenier) and compounds incubated in ten‐point 1 : 2‐fold dilution series for 48 h. Cytotoxicity was determined using Cell Titer‐Glo (Promega), normalized to DMSO alone controls (100 % viability) and control compound Bortezomib (0 % viability at 10 μM). CC50 values were calculated by GraphPad Prism (8.0.2) software using a nonlinear regression four‐parameter fit analysis with the sigmoidal dose response (variable slope).

cathepsin D = target: T1, cathepsin D (Homo sapiens, UniProt P07339); test: Cathepsin D FRET protease assay; format: biochemical; conditions: mean and SD of 4 replicate FRET experiments, 37 °C; highest concentration tested 11 μM
T1 construct: purchased Athens Research 16-12-030104
T1 sequence (P07339 65-412): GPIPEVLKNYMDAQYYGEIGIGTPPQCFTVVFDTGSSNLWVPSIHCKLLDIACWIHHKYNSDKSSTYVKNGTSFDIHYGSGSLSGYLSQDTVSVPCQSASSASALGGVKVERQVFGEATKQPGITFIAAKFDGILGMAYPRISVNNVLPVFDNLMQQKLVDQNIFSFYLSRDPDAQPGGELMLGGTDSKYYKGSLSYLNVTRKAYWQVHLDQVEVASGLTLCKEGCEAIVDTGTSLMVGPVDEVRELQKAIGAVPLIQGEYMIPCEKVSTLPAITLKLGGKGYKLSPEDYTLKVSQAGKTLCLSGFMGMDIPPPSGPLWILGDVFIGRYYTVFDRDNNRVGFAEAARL

[1] = test system: P. falciparum 3D7 parasites; test: Asexual stage of arrest assay (Giemsa smears, SYBR green flow cytometry); format: cell-based
Method: Asexual stage of arrest phenotyping. Inhibition of PMX prevents parasites from egressing from the host erythrocyte and arrests asexual stage parasites at the late schizont stage. […] In this assay, highly synchronized asexual ring stage parasites were treated with ten times the EC50 of 38 and 49c (2) and the DMSO vehicle control. The parasite stage of arrest was analyzed by microscopy of Giemsa‐stained blood smears, while parasitemia was quantified by flow cytometry at 12, 24, 36 and 48 hours.
Stage Arrestment Assay. As previously described,[42] P. falciparum 3D7 parasites were synchronized using a 5 % D‐sorbitol solution prior to assay set‐up. Ring‐staged parasites were adjusted to a final parasitemia and haematocrit of 1 % and 2 %, respectively. Compounds were added to a final concentration of 10×EC50 which were replenished after 24 h. Plates were incubated at 37°C for 48 h and blood smears and 50 μL aliquots in triplicate were harvested every 12 h. Aliquots for flow cytometry analysis were fixed in 0.25 % glutaraldehyde for 30 min at room temperature before being washed in PBS and stored at 4 °C until completion of the assay. To determine parasitemia, fixed blood pellets were stained with 50 μL 2.5×SYBR Green (Invitrogen) for 30 min before being diluted with 180 μL of PBS. 100 000 cells for each sample were counted using an Attune Flow Cytometer (ThermoFisher Scientific). Blood smears were stained with Giemsa and morphology of parasites were examined using a Zeiss Axio Observer microscope.

[2] = test system: PMIX processing of the ASP protein; test: ASP processing inhibition assay in parasites (western blot, anti-HA); format: cell-based, P. falciparum; conditions: 38 at 10 μM, HA‐tagged ASP parasites
Method: (§1) In this experiment, synchronized late trophozoite/early schizont stage parasites, expressing HA‐tagged ASP, were incubated with 38 (10 μM), the positive control WM382 (1) (2.5 nM) (a dual potent inhibitor of PMIX and PMX) and the DMSO vehicle control. Parasites from each treatment condition were then lysed and the processing of the known PMX and PMIX substrates were detected by western blot as a corollary of protease activity.
P. falciparum ASP and SERA5 Processing Inhibition Assay. P. falciparum substrate processing inhibition assays were performed as previously described.[28] Synchronized ring stage cultures were treated with test compounds 38 (10 μM) and WM382 (2.5 nM)[28] or DMSO as a vehicle control. The parasite cultures were grown to the schizont stage before passing over LD magnetic columns (Miltenyi Biotech) to remove uninfected erythrocytes. Parasites were eluted from columns with RPMI 1640 (in‐house) culture medium to which the appropriate inhibitor at the same concentration had been added. Eluted parasites were adjusted to 5×10^6 schizonts/mL and 150 μL added per well of a 96‐well flat‐bottomed culture plate. […] HA‐tagged apical sushi protein (ASP) was detected in the merozoite fraction with anti‐HA mAb and SERA5 was detected in the supernatant fraction with an anti‐SERA5 polyclonal Ab. […]

[3] = test system: SERA5 processing by SUB1, indicative of upstream activity by PMX; test: SERA5 processing inhibition assay in parasites (western blot, anti-SERA5); format: cell-based, P. falciparum; conditions: 38 at 10 μM
From the text: PMX and PMIX ligand cleavage in P. falciparum parasites. It was next determined whether 38 could inhibit PMX and PMIX processing of known invasion and egress ligands in P. falciparum parasites. […] SERA5 is not a direct substrate of PMX, but is processed by SUB1 which itself is activated by PMX. The degree of downstream processing of SERA5 by SUB1 is indicative of PMX activity.
as §1
P. falciparum ASP and SERA5 Processing Inhibition Assay. P. falciparum substrate processing inhibition assays were performed as previously described.[28] Synchronized ring stage cultures were treated with test compounds 38 (10 μM) and WM382 (2.5 nM)[28] or DMSO as a vehicle control. […] HA‐tagged apical sushi protein (ASP) was detected in the merozoite fraction with anti‐HA mAb and SERA5 was detected in the supernatant fraction with an anti‐SERA5 polyclonal Ab. […]

Pf 3D7 = test system: Pf 3D7; parameters: method as in PMID 29074775, PMID 32109369, PMID 23260352, PMID 29519896; conditions: Figure 1, described in literature; cited from earlier work
PMX = conditions: cited from earlier work
PMIX = test system: PMIX; parameters: method as in PMID 29074775, PMID 32109369, PMID 23260352, PMID 29519896; conditions: Figure 1, described in literature; cited from earlier work

Structure (SMILES)	CC50 at 48 h (in vitro) [nM]	IC50 (cathepsin D) [nM]	parasitemia / establishment of infection by flow cytometry ([1]; 38 at 10×EC50 (900 nM), SYBR green flow cytometry at 12, 24, 36, 48 h)	asexual parasite stage of arrest ([1]; 38 at 10×EC50 (900 nM), synchronized ring stage parasites, Giemsa smears, up to 48 h)	ASP processing by PMIX (western blot) [2]	SERA5 processing (western blot) [3]	merozoite egress / stage of arrest ([1]; 49c (2) at 10×EC50 (6 nM), Giemsa smears and flow cytometry, up to 48 h)	EC50 (Pf 3D7) [nM]	IC50 (PMX; Figure 1, described in literature) [nM]	selectivity for PMX compared to PMIX (PMX) [fold]	IC50 (PMIX) [nM]
C[C@@H](NC[C@@H](O)[C@H](Cc1ccccc1)NC(=O)[C@H](CO)NC(=O)OCc1ccccc1)c1ccccc1 [Compd 38, Cbz‐Ser‐Phe‐HEA‐Bn(CH3)⋅TFA]	> 40000	> 11000	unable to establish infection beyond 36 h	arrests asexual parasites at the schizont stage	partial inhibition of PMIX processing	complete inhibition of SERA5 processing	–	–	–	–	–
C[C@@H](NC[C@@H](O)[C@H](Cc1ccccc1)NC(=O)c1ccc(C(=O)N2CCN(C)CC2)cc1)c1ccccc1 [Compd 2, reference compound]	–	> 11000	–	–	–	–	inhibition of merozoite egress	0.6	1.4	> 500	650
